Laboratory results: PMC7531004, “Discovery of gramicidin A analogues with altered activities by multidimensional screening of a one-bead-one-compound library” (Nature Communications, 2020)
Where a SMILES comes first, the peptide text is derived from it. [ ]: non-standard residue; d: D form. The star is where a group is joined. NHCH2CH2OH = OCCN*; For = O=C*

Key:
[1] = H+/Na+ transport assay of bead-derived peptides (one-point); format: biochemical; design: key: relative activity; mean of two control wells = 1.00; conditions: bead-derived peptide solution, EYPC/EYPG LUVs;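 also: relative to parent gramicidin A activity set to 1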
In short: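 Miniaturized 96-well format. LUVs with entrapped pyranine (1.0 mM) were exposed to peptide for 30 min at RT. Intensities were expressed relative to full lysis by Triton X-100 and no treatment, with control-well mean = 1.00.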

[2] = tested on: P388 mouse leukemia cells; conditions: 92 h
In short: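 Peptide stocks diluted 250× in growth medium; P388 cells 1 × 10^4 cells/mL final; 37 °C, 5% CO2, 92 h. WST-1 + 1-methoxy PMS, 4 h, A415. Output: % viability.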

[3] = tested on: Streptococcus pyogenes SSI-9; experiment: Antibacterial activity assay of bead-derived peptides (three concentrations); format: cell-based; design: key: +++: inhibition by the 640-fold diluted peptide solution; ++: inhibition by the 160-fold diluted solution; +: inhibition by the 40-fold diluted solution; -: no inhibition; conditions: S. pyogenes, bead-derived peptide solution, three concentrations
In short: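 First, each peptide stock was diluted 4- and 16-fold in DMSO; next, the three solutions were mixed with S. pyogenes SSI-9 suspension (2 × 10^5 CFU) in cation-adjusted Mueller Hinton Broth plus 5% laked horse blood; finally, plates stood 18 h at 37 °C before checking for grown-cell precipitation.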

Row | Compound | H+/Na+ transport activity normalized against the value of 1 (1.00) [1] | cell viability/% [2] | antibacterial activity [3]
1 | CC(C)C[C@@H](NC(=O)[C@H](C)NC(=O)[C@H](NC(=O)[C@H](C)NC(=O)CNC(=O)[C@@H](NC=O)C(C)C)C(C)C)C(=O)N[C@H](C(=O)N[C@@H](C(=O)N[C@@H](Cc1c[nH]c2ccccc12)C(=O)N[C@@H](C(=O)N[C@@H](Cc1c[nH]c2ccccc12)C(=O)N[C@H](CC(C)C)C(=O)N[C@@H](Cc1c[nH]c2ccccc12)C(=O)N[C@H](CC(C)C)C(=O)N[C@@H](Cc1c[nH]c2ccccc12)C(=O)NCCO)C(C)C)C(C)C)C(C)C [compound 12099] (For-VGA[dV]A[dL]V[dV]W[dV]W[dL]W[dL]W-NHCH2CH2OH) | 1.05 | 85.4% | +
2 | CC(C)C[C@@H](NC(=O)[C@H](C)NC(=O)CNC(=O)[C@@H](NC=O)C(C)C)C(=O)N[C@@H](C)C(=O)N[C@@H](C(=O)N[C@H](C(=O)N[C@@H](C(=O)N[C@@H](Cc1c[nH]c2ccccc12)C(=O)N[C@H](CC(C)C)C(=O)N[C@@H](Cc1c[nH]c2ccccc12)C(=O)N[C@@H](C(=O)N[C@@H](Cc1c[nH]c2ccccc12)C(=O)N[C@H](CC(C)C)C(=O)N[C@@H](Cc1c[nH]c2ccccc12)C(=O)NCCO)C(C)C)[C@H](C)O)C(C)C)C(C)C [compound 12185] (For-VGA[dL]A[dV]V[dT]W[dL]W[dV]W[dL]W-NHCH2CH2OH) | 1.02 | 98.1% | +
3 | CC(C)C[C@@H](NC(=O)[C@H](C)NC(=O)[C@H](NC(=O)[C@H](C)NC(=O)CNC(=O)[C@@H](NC=O)C(C)C)C(C)C)C(=O)N[C@H](C(=O)N[C@@H](C(=O)N[C@@H](Cc1c[nH]c2ccccc12)C(=O)N[C@@H](C(=O)N[C@@H](Cc1c[nH]c2ccccc12)C(=O)N[C@@H](C(=O)N[C@@H](Cc1c[nH]c2ccccc12)C(=O)N[C@@H](C(=O)N[C@@H](Cc1c[nH]c2ccccc12)C(=O)NCCO)C(C)C)C(C)C)C(C)C)[C@H](C)O)C(C)C [compound 12283] (For-VGA[dV]A[dL]V[dT]W[dV]W[dV]W[dV]W-NHCH2CH2OH) | 1.08 | 100.0% | -
4 | CC(C)C[C@@H](NC(=O)[C@H](C)NC(=O)[C@H](NC(=O)[C@H](C)NC(=O)CNC(=O)[C@@H](NC=O)C(C)C)C(C)C)C(=O)N[C@H](C(=O)N[C@@H](C(=O)N[C@@H](Cc1c[nH]c2ccccc12)C(=O)N[C@@H](C(=O)N[C@@H](Cc1c[nH]c2ccccc12)C(=O)N[C@H](CC(C)C)C(=O)N[C@@H](Cc1c[nH]c2ccccc12)C(=O)N[C@@H](C(=O)N[C@@H](Cc1c[nH]c2ccccc12)C(=O)NCCO)[C@H](C)O)C(C)C)C(C)C)C(C)C [compound 12285] (For-VGA[dV]A[dL]V[dV]W[dV]W[dL]W[dT]W-NHCH2CH2OH) | 1.01 | 100.0% | -
5 | CC(C)C[C@@H](NC(=O)[C@H](Cc1c[nH]c2ccccc12)NC(=O)[C@@H](CC(C)C)NC(=O)[C@H](Cc1c[nH]c2ccccc12)NC(=O)[C@@H](CC(C)C)NC(=O)[C@H](Cc1c[nH]c2ccccc12)NC(=O)[C@H](NC(=O)[C@@H](NC(=O)[C@H](NC(=O)[C@H](C)NC(=O)[C@H](NC(=O)[C@H](C)NC(=O)CNC(=O)[C@@H](NC=O)C(C)C)C(C)C)C(C)C)C(C)C)[C@H](C)O)C(=O)N[C@@H](Cc1c[nH]c2ccccc12)C(=O)NCCO [compound 12287] (For-VGA[dV]A[dV]V[dT]W[dL]W[dL]W[dL]W-NHCH2CH2OH) | 1.16 | 100.0% | -
